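Dose response: 5 concentrations. Exposure: 48 h. Format: 96-well plates. Endpoint: linear interpolation; highest concentration if not reached. GI50 marks 50% less growth. TGI marks complete inhibition of growth.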
Legend:
Assay in all cases: growth of human tumour cells (NCI), 48 h
[1] = test system: NCI-H23 lung
[2] = test system: BT-549 breast
[3] = test system: 786-0 renal
[4] = test system: TK-10 renal
[5] = test system: HT29 colon
[6] = test system: OVCAR-8 ovarian
[7] = test system: HS 578T breast
[8] = test system: NCI-H460 lung

`CC(=O)OC1CC2(O)C3CCC4CC(O)CCC4(C)C3CCC2(C)C1C1=CC(=O)OC1` (configuration not stated) showed a TGI [1] of 0.137 µM, a TGI [2] of 0.0895 µM and a TGI [3] of 0.107 µM. For the same compound, the TGI [4] was 0.489 µM, the TGI [5] was 0.779 µM and the TGI [6] was 0.272 µM. For the same compound, the TGI [7] was over 100 µM and the TGI [8] was 0.124 µM.

`C=C(c1ccc(C(=O)N(C)c2ccccc2N)cc1)C(C)N1C(=O)[C@H]2CCCN2C(=O)c2ccccc21` (some centres not stated) gave a GI50 [1] of 61.6 µM, a TGI [1] of over 100 µM and a GI50 [2] of over 100 µM. It also gave a TGI [2] of over 100 µM, a GI50 [3] of 57.6 µM and a TGI [3] of over 100 µM. It also gave a GI50 [4] of 45.5 µM, a TGI [4] of over 100 µM and a GI50 [5] of 16.1 µM. It also gave a TGI [5] of 80.2 µM, a GI50 [6] of 43.7 µM and a TGI [6] of over 100 µM. It also gave a GI50 [7] of 53.1 µM, a TGI [7] of over 100 µM and a GI50 [8] of 32.1 µM. It also gave a TGI [8] of over 100 µM.

Compound `C=CC1CC12C(=O)C1OC2(C)C2C(=O)c3c(O)ccc(O)c3C(=O)C12` (configuration not stated) has a GI50 [1] of 2.95 µM, a TGI [1] of 8.01 µM and a GI50 [2] of 10.2 µM. It also gave a TGI [2] of 26.3 µM, a GI50 [3] of 1.94 µM and a TGI [3] of 4.27 µM. For the same compound, the GI50 [4] was 2.96 µM, the TGI [4] was 9.38 µM and the GI50 [5] was 4.03 µM. For the same compound, the TGI [5] was 16 µM, the GI50 [6] was 6.24 µM and the TGI [6] was 20.2 µM. The GI50 [7] was 7.44 µM, the TGI [7] was 19.3 µM and the GI50 [8] was 7.09 µM. For the same compound, the TGI [8] was 23.7 µM.

`N#CC1=C(N)NC(=O)NC12Nc1ccccc1S2` (configuration not stated) showed a GI50 [1] of 19.3 µM, a TGI [1] of 47.7 µM and a GI50 [2] of 24.2 µM. For the same compound, the TGI [2] was 93.6 µM, the GI50 [3] was 19.4 µM and the TGI [3] was 49.6 µM. It also gave a GI50 [4] of 26.1 µM, a TGI [4] of 66 µM and a GI50 [5] of 36.7 µM. The TGI [5] was over 100 µM, the GI50 [6] was 6.07 µM and the TGI [6] was over 37.8 µM. The GI50 [7] was 25.5 µM, the TGI [7] was over 70.4 µM and the GI50 [8] was 23.6 µM. It also gave a TGI [8] of over 70.9 µM.

Compound `O=C(O)c1cc(N=Cc2ccccc2O)cc(C(=O)O)c1` has a TGI [1] of over 100 µM, a TGI [2] of over 100 µM and a TGI [3] of over 100 µM. It also gave a TGI [4] of over 100 µM, a TGI [5] of over 100 µM and a TGI [6] of over 100 µM. The TGI [7] was over 100 µM and the TGI [8] was over 100 µM.

Compound `Cc1ccc(-c2cc(C3=CC(=O)C=CC3=O)n(-c3ccc(S(N)(=O)=O)cc3)n2)cc1` has a GI50 [1] of 32.9 µM, a TGI [1] of over 100 µM and a GI50 [2] of 64.1 µM. It also gave a TGI [2] of over 100 µM, a GI50 [3] of 26.6 µM and a TGI [3] of 58.8 µM. It also gave a GI50 [4] of 8.54 µM, a TGI [4] of 48.7 µM and a GI50 [5] of 56.4 µM. It also gave a TGI [5] of over 100 µM, a GI50 [6] of 88.7 µM and a TGI [6] of over 100 µM. The GI50 [7] was 64.8 µM, the TGI [7] was over 100 µM and the GI50 [8] was 68.2 µM. The TGI [8] was over 100 µM.

With `CN(C)C(=O)c1cc2cnc(Nc3ccc(-c4csc5c(=O)cc(N6CCOCC6)oc45)cc3)nc2n1C1CCCC1` the GI50 [1] was 0.182 µM, the TGI [1] was 0.87 µM and the GI50 [2] was 0.166 µM. It also gave a TGI [2] of 0.686 µM, a GI50 [3] of 0.162 µM and a TGI [3] of 4.25 µM. For the same compound, the GI50 [4] was 0.194 µM, the TGI [4] was over 100 µM and the GI50 [5] was 0.27 µM. It also gave a TGI [5] of over 100 µM, a GI50 [6] of 0.268 µM and a TGI [6] of over 30.5 µM. For the same compound, the GI50 [7] was 0.134 µM, the TGI [7] was 0.648 µM and the GI50 [8] was 0.209 µM. For the same compound, the TGI [8] was 1.18 µM.

`COc1ccc2nc3cc(Cl)ccc3c(NCCCNCCC(C)O)c2c1` (configuration not stated) was tested, and the GI50 [1] was 0.36 µM, the TGI [1] was 2.1 µM and the GI50 [2] was 1.73 µM. For the same compound, the TGI [2] was 4.13 µM, the GI50 [3] was 0.472 µM and the TGI [3] was 1.94 µM. For the same compound, the GI50 [4] was 0.497 µM, the TGI [4] was 2.94 µM and the GI50 [5] was 0.172 µM. The TGI [5] was 1.25 µM, the GI50 [6] was 0.426 µM and the TGI [6] was 2.54 µM. It also gave a GI50 [7] of 1.05 µM, a TGI [7] of 3.62 µM and a GI50 [8] of 0.178 µM. It also gave a TGI [8] of 0.561 µM.

Reference: PubChem BioAssay (NCI)
